≈ marks a conversion by molar mass, not a printed value.
The molecules below were run on Mycobacterium tuberculosis H37Rv (ATCC: 25177) (assay: Resazurin Microplate Assay (REMA), antitubercular activity, H37Rv). Settings: Middlebrook 7H9 broth, 8 days at 37° C. then resazurin overnight.
Type: cell-based

Molecule	Antitubercular activity against Mycobacterium tuberculosis H37Rv (MIC) [µg/mL]
Ethyl 4-bromo-1-(2-nitrobenzoyl)pyrrolo[1,2-a]quinoline-3-carboxylate [QUIN-KNV12]	1

Same assay, conditions: Mycobacterium tuberculosis, 192 h, Middlebrook 7H9 broth, 8 days at 37° C. then resazurin overnight, read-out: Antitubercular activity against Mycobacterium tuberculosis H37Rv (MIC)

Molecule	MIC [µg/mL]
CCOC(=O)c1cc(C(=O)c2ccc(Br)cc2)n2c1c(Br)cc1ccccc12 [QUIN-KNV6, Ethyl 4-bromo-1-(4-bromobenzoyl)pyrrolo[1,2-a]quinoline-3-carboxylate]	2 (≈ 3.99 µM)
COC(=O)c1c(C(=O)OC)c2c(Br)cc3ccccc3n2c1C(=O)c1ccc(OC)cc1 [QUIN-KNV1, Dimethyl 4-bromo-1-(4-methoxybenzoyl)pyrrolo[1,2-a]quinoline-2,3-dicarboxylate]	0.5 (≈ 1.01 µM)
COC(=O)c1c(C(=O)OC)c2c(Br)cc3ccccc3n2c1C(=O)c1ccc(F)cc1 [QUIN-KNV7, Dimethyl 4-bromo-1-(4-fluorobenzoyl)pyrrolo[1,2-a]quinoline-2,3-dicarboxylate]	16 (≈ 33 µM)
COC(=O)c1c(C(=O)OC)c2c(Br)cc3ccccc3n2c1C(=O)c1ccc(C#N)cc1 [QUIN-KNV9, Dimethyl 4-bromo-1-(4-cyanobenzoyl)pyrrolo[1,2-a]quinoline-2,3-dicarboxylate]	8 (≈ 16.3 µM)
COC(=O)c1c(C(=O)OC)c2c(Br)cc3ccccc3n2c1C(=O)c1ccc(Cl)cc1 [QUIN-KNV3, Dimethyl 4-bromo-1-(4-chlorobenzoyl)pyrrolo[1,2-a]quinoline-2,3-dicarboxylate]	1 (≈ 2 µM)
CCOC(=O)c1cc(C(=O)c2ccc(Cl)cc2)n2c1c(Br)cc1ccccc12 [QUIN-KNV4, Ethyl 4-bromo-1-(4-chlorobenzoyl)pyrrolo[1,2-a]quinoline-3-carboxylate]	8 (≈ 17.5 µM)
CCOC(=O)c1cc(C(=O)c2ccc(OC)cc2)n2c1c(Br)cc1ccccc12 [QUIN-KNV2, Ethyl 4-bromo-1-(4-methoxybenzoyl)pyrrolo[1,2-a]quinoline-3-carboxylate]	1 (≈ 2.21 µM)
CCOC(=O)c1cc(C(=O)c2ccc(C#N)cc2)n2c1c(Br)cc1ccccc12 [QUIN-KNV10, Ethyl 4-bromo-1-(4-cyanobenzoyl)pyrrolo[1,2-a]quinoline-3-carboxylate]	8 (≈ 17.9 µM)
COC(=O)c1c(C(=O)OC)c2c(Br)cc3ccccc3n2c1C(=O)c1ccc(Br)cc1 [QUIN-KNV5, Dimethyl 4-bromo-1-(4-bromobenzoyl)pyrrolo[1,2-a]quinoline-2,3-dicarboxylate]	0.5 (≈ 0.917 µM)
CCOC(=O)c1cc(C(=O)c2ccc(F)cc2)n2c1c(Br)cc1ccccc12 [QUIN-KNV8, Ethyl 4-bromo-1-(4-fluorobenzoyl)pyrrolo[1,2-a]quinoline-3-carboxylate]	1 (≈ 2.27 µM)
COC(=O)c1c(C(=O)OC)c2c(Br)cc3ccccc3n2c1C(=O)c1ccccc1 [QUIN-KNV11, Dimethyl 1-benzoyl-4-bromopyrrolo[1,2-a]quinoline-2,3-dicarboxylate]	32 (≈ 68.6 µM)

— US11919900B1 (priority 2023, dated 2024)
